Experimental data taken from patent publication US20110105474A1, “HETEROCYCLIC DERIVATIVES AS HDAC INHIBITORS” (DAC S.r.l., priority 2008, published 2011).
Where a name gives a salt, the structure may show the parent alone.

Columns and labels:
Assay type in all cases: cell-based
K562 cells = assay: Cell growth, CellTiter-Glo Luminescent Cell Viability Assay, K562; conditions: Homo sapiens, 72 h incubation
Description: (§1) CellTiter-Glo® Luminescent Cell Viability Assay (Promega) is a homogeneous method of determining the number of viable cells in culture based on quantitation of the present ATP, which indicates the presence of metabolically active cells. The homogeneous assay procedure involves addition of a single reagent (CellTiter-Glo®Reagent) directly to the cells, which leads to cell lysis and generation of a luminescent signal proportional to the amount of the ATP and the number of cells present in culture. The assay relies on the properties of a proprietary thermostable luciferase (Ultra-Glo® recombinant luciferase), which generates a luminescent signal.
(§2) K562, A549 and HCT-116 cells, in exponential growth, were incubated for 72 h with different concentrations of the inhibitors. After 72 h, a volume of CellTiter-Glo® Reagent equal to the volume of cell culture medium was added. The content was mixed for 2 min to induce cell lysis. The luminescence was recorded after further 10 min at RT in order to obtain a stabilized luminescent signal.
(§3) The IC50 was calculated using GraphPad Software.
(§4) IC50 results were allocated to one of 3 ranges as follows: Range A: IC50≦1.0 μM; Range B: from 1.0 to 3.0 μM; Range C: IC50≧3.0 μM.

A549 cells = assay: Cell growth, CellTiter-Glo Luminescent Cell Viability Assay, A549; conditions: Homo sapiens, 72 h incubation
Description: as §1, §2, §3, §4

HCT-116 cells = assay: Cell growth, CellTiter-Glo Luminescent Cell Viability Assay, HCT-116; conditions: Homo sapiens, 72 h incubation, read-out: IC50 HCT116
Description: as §1, §2, §3, §4

| Structure (SMILES) | IC50 (K562 cells) | IC50 (A549 cells) | IC50 (HCT-116 cells) |
| --- | --- | --- | --- |
| O=C(/C=C/c1cccc(/C=C/C(=O)N2CCN(c3ccncc3)CC2)n1)NO [Example 40, (E)-N-Hydroxy-3-{6-[(E)-3-oxo-3-(4-pyridin-4-yl-piperazin-1-yl)-propenyl]-pyridin-2-yl}-acrylamide hydrochloride] | ≥ 3000 nM | ≥ 3000 nM | ≥ 3000 nM |
| O=C(/C=C/c1cccc(/C=C/C(=O)N2C[C@@H]3C[C@H]2CN3c2ccc(Cl)cc2)n1)NO [Example 41, (E)-3-(6-{(E)-3-[5-(4-Chloro-phenyl)-(1S,4S)-2,5-diaza-bicyclo[2.2.1]hept-2-yl]-3-oxo-propenyl}-pyridin-2-yl)-N-hydroxy-acrylamide trifluoroacetate] | 1000 to 3000 nM | ≥ 3000 nM | 1000 to 3000 nM |
| O=C(/C=C/c1cccc(/C=C/C(=O)N2CCc3[nH]c4ccccc4c3C2)n1)NO [Example 45, (E)-N-Hydroxy-3-{6-[(E)-3-oxo-3-(1,3,4,5-tetrahydro-pyrido[4,3-b]indol-2-yl)-propenyl]-pyridin-2-yl}-acrylamide hydrochloride] | 1000 to 3000 nM | ≥ 3000 nM | 1000 to 3000 nM |
| CC(C)c1ccc(N2CCN(C(=O)/C=C/c3cccc(/C=C/C(=O)NO)n3)CC2)cc1 [Example 49, (E)-N-Hydroxy-3-(6-{(E)-3-[4-(4-isopropyl-phenyl)-piperazin-1-yl]-3-oxo-propenyl}-pyridin-2-yl)-acrylamide hydrochloride] | 1000 to 3000 nM | 1000 to 3000 nM | ≤ 1000 nM |
| CC(C)(C)c1ccc(N2CCN(C(=O)/C=C/c3cccc(/C=C/C(=O)NO)n3)CC2)cc1 [Example 50, (E)-3-(6-{(E)-3-[4-(4-tert-Butyl-phenyl)-piperazin-1-yl]-3-oxo-propenyl}-pyridin-2-yl)-N-hydroxy-acrylamide hydrochloride] | 1000 to 3000 nM | ≥ 3000 nM | 1000 to 3000 nM |
| CS(=O)(=O)c1ccc(N2CCN(C(=O)/C=C/c3cccc(/C=C/C(=O)NO)n3)CC2)cc1 [Example 51, (E)-N-Hydroxy-3-(6-{(E)-3-[4-(4-methanesulfonyl-phenyl)-piperazin-1-yl]-3-oxo-propenyl}-pyridin-2-yl)-acrylamide hydrochloride] | ≥ 3000 nM | ≥ 3000 nM | ≥ 3000 nM |
| O=C(/C=C/c1cccc(/C=C/C(=O)N2CCCc3ccccc32)n1)NO [Example 55, (E)-3-{6-[(E)-3-(3,4-Dihydro-2H-quinolin-1-yl)-3-oxo-propenyl]-pyridin-2-yl}-N-hydroxy-acrylamide trifluoroacetate] | ≤ 1000 nM | ≤ 1000 nM | ≤ 1000 nM |
| O=C(/C=C/c1cccc(/C=C/C(=O)N2CCc3c([nH]c4ccccc34)C2)n1)NO [Example 56, (E)-N-Hydroxy-3-{6-[(E)-3-oxo-3-(1,3,4,9-tetrahydro-beta-carbolin-2-yl)-propenyl]-pyridin-2-yl}-acrylamide hydrochloride] | 1000 to 3000 nM | ≥ 3000 nM | 1000 to 3000 nM |
| O=C(/C=C/c1cccc(/C=C/C(=O)N2CCC(c3nc4ccccc4o3)CC2)n1)NO [Example 57, (E)-3-{6-[(E)-3-(4-Benzooxazol-2-yl-piperidin-1-yl)-3-oxo-propenyl]-pyridin-2-yl}-N-hydroxy-acrylamide hydrochloride] | ≥ 3000 nM | ≥ 3000 nM | 1000 to 3000 nM |
| O=C(/C=C/c1cccc(/C=C/C(=O)N2CCc3ccccc3C2)n1)NO [Example 58, (E)-3-{6-[(E)-3-(3,4-Dihydro-1H-isoquinolin-2-yl)-3-oxo-propenyl]-pyridin-2-yl}-N-hydroxy-acrylamide hydrochloride] | ≤ 1000 nM | 1000 to 3000 nM | ≤ 1000 nM |
| O=C(/C=C/c1cccc(/C=C/C(=O)N2CCC(c3nc4ccccc4[nH]3)CC2)n1)NO [Example 59, (E)-3-(6-{(E)-3-[4-(1H-Benzoimidazol-2-yl)-piperidin-1-yl]-3-oxo-propenyl}-pyridin-2-yl)-N-hydroxy-acrylamide hydrochloride] | ≥ 3000 nM | ≥ 3000 nM | ≥ 3000 nM |
| O=C(/C=C/c1cccc(/C=C/C(=O)N2CCC3(C=Cc4ccccc43)CC2)n1)NO [Example 60, (E)-3-(6-{(E)-3-[Spiro[indene-1,4′-piperidine-1′-yl]-3-oxo-propenyl}-pyridin-2-yl)-N-hydroxy-acrylamide hydrochloride] | ≤ 1000 nM | ≥ 3000 nM | 1000 to 3000 nM |
| O=C(/C=C/c1cccc(/C=C/C(=O)N2CCC3(CC2)OCc2ccccc23)n1)NO [Example 61, (E)-3-(6-{(E)-3-[Spiro[2-benzofuran-1,4′-piperidine-1′-yl]-3-oxo-propenyl}-pyridin-2-yl)-N-hydroxy-acrylamide hydrochloride] | ≤ 1000 nM | 1000 to 3000 nM | ≤ 1000 nM |
| O=C(/C=C/c1cccc(/C=C/C(=O)N2CCC(n3c(-c4ccccc4)nc4ccccc43)CC2)n1)NO [Example 62, (E)-N-Hydroxy-3-(6-{(E)-3-oxo-3-[4-(2-phenyl-benzoimidazol-1-yl)-piperidin-1-yl]-propenyl}-pyridin-2-yl)-acrylamide hydrochloride] | ≥ 3000 nM | ≥ 3000 nM | ≥ 3000 nM |
| O=C(/C=C/c1cccc(/C=C/C(=O)N2CCC[C@@H](c3ccccc3)C2)n1)NO [Example 73, (E)-N-Hydroxy-3-{6-[(E)-3-oxo-3-((S)-3-phenyl-piperidin-1-yl)-propenyl]-pyridin-2-yl}-acrylamide hydrochloride] | ≤ 1000 nM | ≤ 1000 nM | ≤ 1000 nM |
| O=C(/C=C/c1cccc(/C=C/C(=O)N2CCCC(c3ccccc3)C2)n1)NO (stereo not drawn) [Example 74, (E)-N-Hydroxy-3-{6-[(E)-3-oxo-3-((12)-3-phenyl-piperidin-1-yl)-propenyl]-pyridin-2-yl}-acrylamide hydrochloride] | ≤ 1000 nM | ≤ 1000 nM | ≤ 1000 nM |
| O=C(/C=C/c1cccc(/C=C/C(=O)N2CC=C(c3ccccc3)CC2)c1)NO [Example 75, (E)-N-Hydroxy-3-{3-[(E)-3-oxo-3-(4-phenyl-3,6-dihydro-2H-pyridin-1-yl)-propenyl]-phenyl}-acrylamide] | 1000 to 3000 nM | 1000 to 3000 nM | ≤ 1000 nM |
| O=C(/C=C/c1cccc(/C=C/C(=O)N2CCN(c3ccc(Cl)cc3)CC2)c1)NO [Example 76, (E)-3-(3-{(E)-3-[4-(4-Chloro-phenyl)-piperazin-1-yl]-3-oxo-propenyl}-phenyl)-N-hydroxy-acrylamide hydrochloride] | ≤ 1000 nM | ≤ 1000 nM | ≤ 1000 nM |
| O=C(/C=C/c1cccc(/C=C/C(=O)N2CCC(C(=O)c3ccccc3)CC2)c1)NO [Example 77, (E)-3-{3-[(E)-3-(4-Benzoyl-piperidin-1-yl)-3-oxo-propenyl]phenyl}-N-hydroxy-acrylamide] | 1000 to 3000 nM | ≥ 3000 nM | 1000 to 3000 nM |
| O=C(/C=C/c1cccc(/C=C/C(=O)N2CCC[C@H](c3ccccc3)C2)c1)NO [Example 81, (E)-N-Hydroxy-3-{3-[(E)-3-oxo-3-((R)-3-phenyl-piperidin-1-yl)-propenyl]-phenyl}acrylamide] | ≥ 3000 nM | ≥ 3000 nM | ≥ 3000 nM |
| O=C(/C=C/c1cccc(/C=C/C(=O)N2CCC[C@@H](c3ccccc3)C2)c1)NO [Example 82, (E)-N-Hydroxy-3-{3-[(E)-3-oxo-3-((S)-3-phenyl-piperidin-1-yl)-propenyl]-phenyl}-acrylamide] | ≥ 3000 nM | ≥ 3000 nM | ≥ 3000 nM |
| O=C(/C=C/c1cccc(/C=C/C(=O)N2CCN(c3cccc(Cl)c3)CC2)c1)NO [Example 85, (E)-3-(3-{(E)-3-[4-(3-Chloro-phenyl)-piperazin-1-yl]-3-oxo-propenyl}-phenyl)-N-hydroxy-acrylamide hydrochloride] | 1000 to 3000 nM | ≥ 3000 nM | 1000 to 3000 nM |
| O=C(/C=C/c1cccc(/C=C/C(=O)N2CCC(Cc3ccccc3)CC2)c1)NO [Example 86, (E)-3-{3-[(E)-3-(4-Benzyl-piperidin-1-yl)-3-oxo-propenyl]-phenyl}-N-hydroxy-acrylamide] | ≥ 3000 nM | ≥ 3000 nM | ≥ 3000 nM |
| O=C(/C=C/c1cccc(/C=C/C(=O)N2CCN(c3ccccc3Cl)CC2)c1)NO [Example 87, (E)-3-(3-{(E)-3-[4-(2-Chloro-phenyl)-piperazin-1-yl]-3-oxo-propenyl}-phenyl)-N-hydroxy-acrylamide hydrochloride] | 1000 to 3000 nM | ≥ 3000 nM | 1000 to 3000 nM |
| N#Cc1ccc(N2CCN(C(=O)/C=C/c3cccc(/C=C/C(=O)NO)c3)CC2)cc1 [Example 88, (E)-3-(3-{(E)-3-[4-(4-Cyano-phenyl)-piperazin-1-yl]-3-oxo-propenyl}-phenyl)-N-hydroxy-acrylamide hydrochloride] | ≤ 1000 nM | 1000 to 3000 nM | ≤ 1000 nM |
| O=C(/C=C/c1cccc(/C=C/C(=O)N2CCC=C(c3ccccc3)C2)c1)NO [Example 89, (E)-N-Hydroxy-3-{3-[(E)-3-oxo-3-(5-phenyl-3,6-dihydro-2H-pyridin-1-yl)-propenyl]-phenyl}-acrylamide] | ≥ 3000 nM | ≥ 3000 nM | ≥ 3000 nM |
| O=C(/C=C/c1cccc(/C=C/C(=O)N2CCNC(c3ccccc3)C2)c1)NO (stereo not drawn) [Example 90, (E)-N-Hydroxy-3-{3-[(E)-3-oxo-3-(3-phenyl-piperazin-1-yl)-propenyl]phenyl}-acrylamide hydrochloride] | 1000 to 3000 nM | ≥ 3000 nM | 1000 to 3000 nM |
